In ChEMBL document CHEMBL4680169, “Synthesis and bioevaluation of new vascular-targeting and anti-angiogenic thieno[2,3-d]pyrimidin-4(3H)-ones” (Eur J Med Chem, 2020):
Active and inactive are the calls of the source. No cut-off for these calls is given here.

Legend:
[1] = test system: 518A2; assay: cells; assay type: functional, cell-based; settings: Homo sapiens, 518A2, 72 h
Description: Cytotoxicity against human 518A2 cells assessed as inhibition of cell growth after 72 hrs by MTT assay

[2] = test system: HCT-116; assay: cells; assay type: functional, cell-based; settings: Homo sapiens, HCT-116, 72 h
Description: Cytotoxicity against human HCT-116 p53 mutant cells assessed as inhibition of cell growth after 72 hrs by MTT assay

[3] = test system: EA.hy 926; assay: cells; assay type: functional, cell-based; settings: Homo sapiens, EA.hy 926, 72 h
Description: Cytotoxicity against human EA.hy 926 cells assessed as inhibition of cell growth after 72 hrs by MTT assay

[4] = test system: HCT-116; assay: cells; assay type: functional, cell-based; settings: Homo sapiens, HCT-116, 72 h; remark: listed apart in the source
Description: Cytotoxicity against wild type human HCT-116 cells assessed as inhibition of cell growth after 72 hrs by MTT assay

[5] = species on record: Sus scrofa; assay: Inhibition of porcine brain tubulin polymerization at 10 uM measured at 20 sec interval for 2 hrs by turbidometric method
[6] = test system: KB-V1; assay: cells; assay type: functional, cell-based; settings: Homo sapiens, KB-V1, 72 h
Description: Cytotoxicity against multidrug resistant human KB-V1 cells assessed as inhibition of cell growth after 72 hrs by MTT assay

[7] = test system: Chorioallantoic membrane; assay: Antiangiogenic activity in chicken fertilized egg chorioallantoic membrane assessed as reduction in tube formation at 5 nmol incubated for 6 to 24 hrs by CAM assay; assay type: functional, tissue-based; settings: Gallus gallus, time 6-24 hrs
[8] = species on record: Danio rerio; assay: Antiangiogenic activity in zebrafish embryo assessed as reduction in SIV at 250 nM incubated for 48 hrs by fluorescence microscopic analysis; assay type: functional; design: scale not given: the % may be the effect or the level left
[9] = molecular target: T1, Tubulin (Homo sapiens) (UniProt P68371+Q9H4B7+P0DPH7+P68366+Q13509+Q71U36+P04350+Q3ZCM7+P07437+P68363+Q9BQE3+Q6PEY2+Q13885+Q9BVA1+Q9BUF5); assay: Induction of microtubule cytoskeleton disruption in human EA.hy926 cells at 25 nM measured after 24 hrs by DAPI staining based fluorescence microscopic analysis; assay type: cell-based; settings: EA.hy 926
[10] = test system: Chorioallantoic membrane; assay: Vascular disruptive effect in chicken fertilized egg chorioallantoic membrane at 15 nmol incubated for 6 hrs by CAM assay; assay type: functional, tissue-based; settings: Gallus gallus
[11] = test system: EA.hy 926; assay: Antiangiogenic activity in human EA.hy926 cells assessed as reduction in tube formation at 150 nM incubated for 6 hrs by matrigel-based MTT assay; assay type: functional, cell-based
[12] = molecular target: T1, Tubulin (Homo sapiens); assay: Induction of microtubule cytoskeleton disruption in human EA.hy926 cells at 50 nM assessed as mitotic catastrophe measured after 24 hrs by DAPI staining based fluorescence microscopic analysis; assay type: cell-based; settings: EA.hy 926
[13] = species on record: Danio rerio; assay: Antiangiogenic activity in zebrafish embryo assessed as reduction in tube formation at 500 nM incubated for 48 hrs by fluorescence microscopic analysis; assay type: functional; design: scale not given: the % may be the effect or the level left
[14] = test system: EA.hy 926; assay: Induction of F-actin cytoskeleton disruption in human EA.hy926 cells at 50 nM assessed as formation of actin stress fibers measured after 3 hrs by DAPI staining based fluorescence microscopic analysis; assay type: cell-based
[15] = cells; assay type: ADME, cell-based; settings: Homo sapiens, HDFa, 72 h
Description: Cytotoxicity against human HDfa cells assessed as inhibition of cell growth after 72 hrs by MTT assay

[16] = test system: EA.hy 926; assay: Cell cycle arrest in human EA.hy926 cells assessed as accumulation at G2/M phase at 25 to 70 uM after 24 hrs by propidium iodide staining based flow cytometric analysis; assay type: functional; settings: dose 25-70 µM
[17] = molecular target: CDK1/Cyclin A (Homo sapiens) (UniProt P06493+P20248); assay: Inhibition of full length recombinant human CDK1/cyclin A2 expressed in baculovirus infected sf9 cells using histone H1 as substrate incubated for 15 mins in presence of ATP by ADP-Glo assay
CDK1/Cyclin A (Homo sapiens), sequence (P06493 whole entry, looked up): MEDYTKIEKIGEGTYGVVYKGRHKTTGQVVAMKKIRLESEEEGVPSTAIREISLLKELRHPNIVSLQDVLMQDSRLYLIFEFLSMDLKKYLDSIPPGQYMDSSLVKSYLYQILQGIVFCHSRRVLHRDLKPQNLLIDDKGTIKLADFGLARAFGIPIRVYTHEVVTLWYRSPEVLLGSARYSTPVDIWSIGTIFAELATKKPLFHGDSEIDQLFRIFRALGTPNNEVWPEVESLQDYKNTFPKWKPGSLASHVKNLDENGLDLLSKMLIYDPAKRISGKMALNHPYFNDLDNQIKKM
CDK1/Cyclin A (Homo sapiens), sequence (P20248 whole entry, looked up): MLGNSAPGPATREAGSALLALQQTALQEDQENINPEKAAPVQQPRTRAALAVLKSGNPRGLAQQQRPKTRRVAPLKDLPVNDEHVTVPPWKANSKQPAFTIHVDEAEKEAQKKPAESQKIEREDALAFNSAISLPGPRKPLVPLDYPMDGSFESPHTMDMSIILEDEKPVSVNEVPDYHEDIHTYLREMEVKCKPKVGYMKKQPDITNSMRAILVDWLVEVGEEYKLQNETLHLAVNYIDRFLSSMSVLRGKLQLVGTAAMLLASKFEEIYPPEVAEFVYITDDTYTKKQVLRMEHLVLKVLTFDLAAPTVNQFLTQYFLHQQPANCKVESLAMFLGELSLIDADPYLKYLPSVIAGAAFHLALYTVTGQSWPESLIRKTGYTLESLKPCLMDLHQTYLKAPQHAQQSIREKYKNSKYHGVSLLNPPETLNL

[18] = test system: EA.hy 926; assay: Vascular disruptive effect in human EA.hy926 cells at 250 nM incubated for 12 hrs by matrigel-based MTT assay; assay type: functional, cell-based
[19] = test system: EA.hy 926; assay: Cell cycle arrest in human EA.hy926 cells assessed as accumulation at sub-G1 phase after 24 hrs by propidium iodide staining based flow cytometric analysis; assay type: functional
[20] = test system: Chorioallantoic membrane; assay: Vascular disruptive effect in chicken fertilized egg chorioallantoic membrane at 15 nmol incubated for 24 hrs by CAM assay; assay type: functional, tissue-based; settings: Gallus gallus
[21] = test system: Chorioallantoic membrane; assay: Vascular disruptive effect in chicken fertilized egg chorioallantoic membrane at 5 nmol incubated for 24 hrs by CAM assay; assay type: functional, tissue-based; settings: Gallus gallus

Row | SMILES | IC50 [1] | IC50 [2] | IC50 [3] | IC50 [4] | IC50 [6] | further results
1 | C=CC(=O)N1CCc2c(sc3nc(-c4cc(I)c(OC)c(OC)c4)[nH]c(=O)c23)C1 | 0.2 µM | 0.7 µM | 0.4 µM | 2 µM | 1.2 µM | inhibition [5]: Active
2 | C=CC(=O)N1CCc2c(sc3nc(-c4cc(Br)c(OC)c(OC)c4)[nH]c(=O)c23)C1 | 0.7 µM | 4.6 µM | 0.9 µM | 4.3 µM | 1.9 µM | 
3 | O=c1[nH]c(-c2cc(F)cc(F)c2)nc2sc3c(c12)CCCCC3 | > 100 µM | > 100 µM | > 100 µM | > 100 µM | > 100 µM | 
4 | COc1cc(-c2nc3sc4c(c3c(=O)[nH]2)CCCC4)cc(I)c1OC | 0.1 µM | 0.1 µM | 0.2 µM | 0.2 µM | 0.1 µM | Activity [7]: Active; Activity [8]: 18%; Activity [9]: inactive; Activity [10]: Active; Activity [11]: Active; Activity [12]: Active; Activity [13]: 28%; Activity [14]: Active; IC50 [15]: > 100 µM; inhibition [5]: Active; Activity [16]: Active; inhibition [17]: Active; Activity [18]: Active; Activity [19]: Dose-dependent effect
5 | CCOC(=O)N1CCc2c(sc3nc(-c4cc(F)cc(F)c4)[nH]c(=O)c23)C1 | 5.2 µM | 4.2 µM | 4 µM | 1.6 µM | 5.3 µM | 
6 | COc1c(Br)cc(-c2nc3sc4c(c3c(=O)[nH]2)CCCCC4)cc1Br | 0.4 µM | 1 µM | 1 µM | 0.9 µM | 1.4 µM | 
7 | COc1cc(-c2nc3sc4c(c3c(=O)[nH]2)CCNC4)cc(I)c1OC | 1.4 µM | 0.8 µM | 1 µM | 1 µM | 2.5 µM | inhibition [5]: Active
8 | CCOC(=O)N1CCc2c(sc3nc(-c4cccnc4)[nH]c(=O)c23)C1 | 80 µM | 39.1 µM | 100 µM | 32.5 µM | 35.2 µM | 
9 | O=c1[nH]c(-c2cc(F)cc(F)c2)nc2sc3c(c12)CCNC3 | 5.7 µM | 3.6 µM | 5.4 µM | 6.9 µM | 6.5 µM | 
10 | CCOC(=O)N1CCc2c(sc3nc(-c4cc(I)c(OC)c(OC)c4)[nH]c(=O)c23)C1 | 0.1 µM | 0.1 µM | 0.1 µM | 0.3 µM | 0.1 µM | Activity [20]: inactive; Activity [21]: Active; Activity [7]: Active; Activity [9]: inactive; Activity [11]: Active; Activity [12]: Active; Activity [14]: Active; IC50 [15]: 13.1 µM; inhibition [5]: Active; Activity [16]: Active; inhibition [17]: Active; Activity [18]: Active; Activity [19]: Dose-dependent effect
11 | COc1ccc(-c2nc3sc4c(c3c(=O)[nH]2)CCNC4)cc1 | 3.8 µM | 2.2 µM | 3.8 µM | 4 µM | 6.7 µM | 
12 | COc1c(Br)cc(-c2nc3sc4c(c3c(=O)[nH]2)CCNC4)cc1Br | 5.8 µM | 1.5 µM | 1 µM | 1.5 µM | 6.2 µM | 
13 | COc1cc(-c2nc(O)c3c4c(sc3n2)CCCC4)cc(OC)c1OC | 0.2 µM | 0.3 µM | 0.4 µM | 5.5 µM | 0.2 µM | Activity [9]: inactive; Activity [12]: Active; Activity [14]: inactive; IC50 [15]: > 100 µM
14 | COc1cc(-c2nc3sc4c(c3c(=O)[nH]2)CCCC4)cc(Br)c1OC | 0.3 µM | 0.5 µM | 0.3 µM | 0.4 µM | 0.3 µM | 
15 | COc1cc(-c2nc3sc4c(c3c(=O)[nH]2)CCNC4)cc(Br)c1OC | 9.3 µM | 7.4 µM | 11.5 µM | 10.6 µM | 2 µM | 
16 | COc1cc(-c2nc3sc4c(c3c(=O)[nH]2)CCNC4)cc(OC)c1OC | > 100 µM | > 100 µM | 100 µM | > 100 µM | > 100 µM | 
17 | CCOC(=O)N1CCc2c(sc3nc(-c4cc(OC)c(OC)c(OC)c4)[nH]c(=O)c23)C1 | 0.2 µM | 0.5 µM | 0.2 µM | 0.6 µM | 0.8 µM | 
